Values quoted from earlier work as cited in US5635503A, “Dihydropyridine npy antagonists: piperazine derivatives” (Bristol-Myers Squibb Company, priority 1995, dated 1997).

Key:
Y2 receptor = biological target: T1, Y2 receptor (Rattus norvegicus, UniProt Q9ERC0); details: functional selectivity for the Y2 receptor
T1 sequence (Q9ERC0 1-381): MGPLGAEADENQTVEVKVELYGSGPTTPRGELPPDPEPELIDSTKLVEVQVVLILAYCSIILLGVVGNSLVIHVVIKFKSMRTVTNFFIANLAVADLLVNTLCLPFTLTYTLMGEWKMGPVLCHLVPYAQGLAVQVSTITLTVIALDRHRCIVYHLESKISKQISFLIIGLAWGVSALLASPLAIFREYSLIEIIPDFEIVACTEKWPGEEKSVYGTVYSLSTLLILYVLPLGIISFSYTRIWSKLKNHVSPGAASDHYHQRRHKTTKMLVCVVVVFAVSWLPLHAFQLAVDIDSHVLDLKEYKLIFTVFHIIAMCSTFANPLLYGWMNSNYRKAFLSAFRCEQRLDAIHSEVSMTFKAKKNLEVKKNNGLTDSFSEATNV

[1] = test system: vasoconstrictive activity of the NPY1 agonist [Leu31, Pro34]NPY
[2] = test system: NPY-related increases in diastolic blood pressure; details: anesthetized guinea pig model

Compound | effect on the NPY2 agonist NPY13-36 (Y2 receptor) | functional antagonism (rat femoral artery) | effect on vasoconstrictive activity of the NPY1 agonist [Leu31, Pro34]NPY [1] | antagonism of NPY-related increases in diastolic blood pressure [2]
N=C(N)N(CCCCCCNCc1ccc2ccccc2c1)CCCCCCN(CCCCCCNCc1ccc2ccccc2c1)C(=N)N [Example 6b] | antagonized the effect | display functional antagonism | had no effect | 
CN(C)CC1CCC(CNC(=N)c2ccc(CC(NC(=O)C(Cc3ccccc3)NS(=O)(=O)c3ccc4ccccc4c3)C(=O)N3CCCC3)cc2)CC1 (stereo not shown) [SR 120819A] |  |  |  | antagonized
